In patent publication US20250313535A1, “ALPHA 4 BETA 7 INTEGRIN MODULATORS AND USES THEREOF” (DICE MOLECULES SV, INC., priority 2022, published 2025) one finds IC50 data, which are given here for 31 molecules.

α4β7 integrin, sequence (P13612 34-1032): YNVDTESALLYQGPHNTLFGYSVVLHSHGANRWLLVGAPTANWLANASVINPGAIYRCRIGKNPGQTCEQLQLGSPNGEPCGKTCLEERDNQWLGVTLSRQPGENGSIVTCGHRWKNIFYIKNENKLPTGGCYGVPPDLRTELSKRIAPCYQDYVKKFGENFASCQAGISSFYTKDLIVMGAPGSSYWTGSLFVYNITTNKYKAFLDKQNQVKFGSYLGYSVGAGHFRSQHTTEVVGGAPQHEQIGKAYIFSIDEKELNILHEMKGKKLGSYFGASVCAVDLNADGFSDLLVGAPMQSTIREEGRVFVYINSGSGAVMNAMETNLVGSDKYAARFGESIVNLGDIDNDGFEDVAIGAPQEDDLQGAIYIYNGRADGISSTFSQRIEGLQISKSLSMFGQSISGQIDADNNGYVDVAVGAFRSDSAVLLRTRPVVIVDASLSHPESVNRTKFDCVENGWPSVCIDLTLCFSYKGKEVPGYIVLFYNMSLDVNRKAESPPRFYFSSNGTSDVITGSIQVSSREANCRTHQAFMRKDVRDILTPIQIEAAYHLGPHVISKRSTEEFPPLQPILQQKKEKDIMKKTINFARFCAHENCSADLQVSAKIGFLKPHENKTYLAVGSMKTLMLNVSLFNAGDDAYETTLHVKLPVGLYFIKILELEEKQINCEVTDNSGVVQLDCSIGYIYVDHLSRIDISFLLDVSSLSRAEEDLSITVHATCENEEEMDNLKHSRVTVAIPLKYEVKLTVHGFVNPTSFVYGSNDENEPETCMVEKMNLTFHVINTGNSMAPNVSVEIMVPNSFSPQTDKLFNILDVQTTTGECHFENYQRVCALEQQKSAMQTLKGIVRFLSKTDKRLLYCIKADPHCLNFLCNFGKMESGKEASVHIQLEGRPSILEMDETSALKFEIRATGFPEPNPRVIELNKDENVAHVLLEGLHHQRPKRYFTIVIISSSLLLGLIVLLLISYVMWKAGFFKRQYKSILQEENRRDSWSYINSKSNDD
α4β7 integrin, sequence (P26010 20-798): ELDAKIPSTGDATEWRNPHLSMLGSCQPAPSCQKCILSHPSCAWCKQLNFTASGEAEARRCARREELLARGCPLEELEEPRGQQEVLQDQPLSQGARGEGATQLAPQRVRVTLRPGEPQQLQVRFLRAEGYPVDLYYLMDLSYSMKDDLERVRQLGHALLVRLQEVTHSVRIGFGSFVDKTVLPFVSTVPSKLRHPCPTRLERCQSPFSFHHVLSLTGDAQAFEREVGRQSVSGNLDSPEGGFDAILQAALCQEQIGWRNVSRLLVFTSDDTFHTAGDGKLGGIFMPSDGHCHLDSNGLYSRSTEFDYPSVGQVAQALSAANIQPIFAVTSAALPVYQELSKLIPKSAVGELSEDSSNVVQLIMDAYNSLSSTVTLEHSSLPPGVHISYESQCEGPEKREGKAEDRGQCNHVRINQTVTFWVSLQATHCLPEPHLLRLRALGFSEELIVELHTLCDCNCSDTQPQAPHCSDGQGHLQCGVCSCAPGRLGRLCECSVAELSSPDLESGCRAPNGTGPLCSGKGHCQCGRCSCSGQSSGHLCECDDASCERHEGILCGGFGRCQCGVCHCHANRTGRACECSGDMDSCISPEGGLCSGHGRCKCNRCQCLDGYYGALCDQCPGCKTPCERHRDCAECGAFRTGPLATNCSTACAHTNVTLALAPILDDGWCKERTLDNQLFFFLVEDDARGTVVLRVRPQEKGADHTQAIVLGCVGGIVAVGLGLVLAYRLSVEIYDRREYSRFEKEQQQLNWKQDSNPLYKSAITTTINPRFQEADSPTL
α4β1 integrin, sequence (P13612 34-1032): as the sequence (P13612 34-1032) above
α4β1 integrin, sequence (P05556 21-798): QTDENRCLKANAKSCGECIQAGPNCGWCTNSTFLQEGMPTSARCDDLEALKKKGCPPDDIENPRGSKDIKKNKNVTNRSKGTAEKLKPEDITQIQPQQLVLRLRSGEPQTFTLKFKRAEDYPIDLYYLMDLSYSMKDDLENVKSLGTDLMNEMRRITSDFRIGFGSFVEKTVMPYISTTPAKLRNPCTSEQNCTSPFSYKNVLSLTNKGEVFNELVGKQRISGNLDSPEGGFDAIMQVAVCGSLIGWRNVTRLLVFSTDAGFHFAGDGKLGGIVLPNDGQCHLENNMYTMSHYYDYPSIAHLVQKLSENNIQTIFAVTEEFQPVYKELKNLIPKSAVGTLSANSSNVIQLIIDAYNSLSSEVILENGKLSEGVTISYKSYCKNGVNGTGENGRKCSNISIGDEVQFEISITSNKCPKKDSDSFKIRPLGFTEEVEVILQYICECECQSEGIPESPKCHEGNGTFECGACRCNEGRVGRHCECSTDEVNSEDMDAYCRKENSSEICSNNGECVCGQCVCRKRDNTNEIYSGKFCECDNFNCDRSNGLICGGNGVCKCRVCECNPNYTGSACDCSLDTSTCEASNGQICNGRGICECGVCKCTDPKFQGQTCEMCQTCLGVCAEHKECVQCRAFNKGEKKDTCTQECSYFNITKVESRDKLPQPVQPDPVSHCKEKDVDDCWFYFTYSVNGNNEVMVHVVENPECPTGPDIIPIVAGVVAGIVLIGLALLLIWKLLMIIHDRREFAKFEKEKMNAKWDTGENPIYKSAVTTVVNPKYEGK

The first test deals with α4β7 integrin (Homo sapiens (Human), UniProt P13612+P26010). Put plainly: Integrin Adhesion Assay: Protocol 4 (MAdCAM-coated plate, RPMI-8866 cells with stable LOF mutation of the ITGB1 gene). It counts as cell-based. The note with it: Protocol 4; RPMI-8866 cells with LOF mutation of ITGB1, MAdCAM; read-out: Mean IC50 α4β7 KO. The procedure:
(§1) Integrin Adhesion Assay Using Genetically Modified Cells Generating Stable Cell Lines with ITGB1 or ITGB7 Knockout (Protocol 4 and Protocol 5)
(§2) To obtain subclones of the RPMI-8866 cell line (Sigma-Aldrich, St. Louis, MO) that were individually deficient in either integrin β1 or integrin β 7, CRISPR/Cas9 technology was employed (PMID: 30108345). Specifically, a Neon™ Transfection System System 10 μL Kit and the Neon™ Transfection device (both from ThermoFisher Scientific) were used.
(§3) The protocol was performed following the manufacturer instructions, described in https://www.thermofisher.com/document-connect/document-connect.html?url=https % 3A%2F%2F assets.thermofisher.com%2FTFS-Assets%2FLSG%2Fmanuals%2FMAN0017066_TrueCut Cas9_Protein_v2_UG.pdf, which is incorporated by reference herein in its entirety.
(§4) RPMI-8866 cells were transferred to a flask the day before transfection, at a confluence of 5×10^5 cells/mL. The cells were washed with PBS and resuspended in buffer R (Neon™ Transfection System, Invitrogen) to 2×10^5 cells/10 uL for each reaction. The TrueCut™ HiFi Cas9 Protein (1250 ng per reaction) was mixed with TrueGuide™ sgRNA (7.5 pmoles each/pool of 3 sequences, table 1) (ThermoFisher Scientific). This mix was combined with the RPMI-8866 cells and electroporated on the Neon system at 1700V/20 ms/1 pulse. Transfected cells were allowed to recover in 500 μL pre-warmed cRMPI media (RPMI-1640 media with 10% FBS, 100 U/ml Penicillin-Streptomycin) at 37° C., 5% CO2 for 24 hours. At that time, an extra 500 μL of pre-warmed cRMPI media was added, and cells were incubated for another 24 hours.
(§5) For flow cytometry analysis, 100 μL of the transfected cells were collected and stained with anti-itga4 (Clone: 9F10, PE, BD Pharmingen™), anti-itgb 1 (Clone: (TS2/16), Super Bright 436, eBioscience), anti-itgb7 (Clone: FIB504, Brilliant Violet 650, BD Pharmingen™) and viability dye (LIVE/DEAD™ Fixable Green Dead Cell Stain, Invitrogen™). An Attune NxT Flow Cytometer was used to analyze the CRISPR-transfected cells. The flow cytometry results were analyzed using FlowJo™ v10.8.1 Software (BD Life Sciences). Fluorescence minus one (FMO) controls were used to select appropriate gates for data analysis.
(§6) To generate an individual clones of cells deficient in either ITGB7 or ITGB1 by limiting dilution assay, the transfected cells were resuspended at 5 cells/mL and seeded in 384 well plates. Outgrowth of clones was monitored using a microscope, and 24 clones were transferred for expansion. Expression of either integrin was verified by flow cytometry in each of the clones. One clone of each integrin b7 or the integrin b1 knockout was chosen, expanded and aliquots were frozen in vapor phase liquid nitrogen.
Integrin Adhesion Assay: Protocol 4
(§7) MAdCAM (R&D Systems, 0.1 ug) was diluted in 50 μL PBS, added to each well of an opaque ELISA plate (Thermo), and incubated overnight at 4° C. Coated plates were washed once with PBS and then blocked with 200 μL of assay buffer (10 mM HEPES, 150 mM NaCl, 1 mM MnCl2, 0.1 mM CaCl2), 1% BSA) for 1 hour at 37° C. and 5% CO2. After incubation, buffer was aspirated from the plates and 50 μL of fresh assay buffer was added. Compounds were added using a compounds dispenser (Tecan), and DMSO concentration was normalized to 1% across each plate. 50 μL of RPMI-8866 cells with a stable loss of function (LOF) mutation of the ITGB1 gene (2×10^6 per mL) were added to each well and the plates were incubated for 1 hour at 37° C. at a CO2 concentration of 5%. After incubation, plates were allowed to cool to RT for 10 minutes before being washed four times in assay buffer by an automated plate washer (BioTek). After washing, 100 μL of a 1:1 mixture of assay buffer and CellTiter GLO 2.0 reagent (Promega) were added to each well. Plates were mixed for 2 minutes at 1000 rpm and then allowed to incubate an additional 10 minutes before reading out luminescence on a Tecan Spark plate reader. […]
As a reminder, the IC50 is the concentration that inhibits the measured activity by half. On to `COc1cc2c(c(C(F)(F)F)c1-c1cccc3c(C[C@H](NC(=O)C4(C(F)(F)F)CCN(CC(F)(F)F)CC4)C(=O)O)cccc13)CN(C)CC2` [Compound 736], for which the IC50 was less than 10 nM. Consider `COC1CN(Cc2cnc(-c3cccc4c(C[C@H](NC(=O)C5(C(F)(F)F)CCN(CC(F)F)CC5)C(=O)O)cccc34)c3ccccc23)C1` [Compound 913], for which the IC50 was less than 10 nM.

For `O=C(O)[C@H](Cc1cccc2c(-c3nccc4ccc(CCCN5CC6(CCC6)C5)cc34)cccc12)NC(=O)C1(C(F)(F)F)CCN(CC(F)(F)F)CC1` [Compound 745], the IC50 was less than 10 nM. As to `COc1ccc(CN2CCC(C(F)(F)F)CC2)cc1-c1cccc2c(C[C@H](NC(=O)C3(C(F)(F)F)CCN(CC(F)F)CC3)C(=O)O)cccc12` [Compound 938], the IC50 is less than 10 nM.

With `O=C(O)[C@H](Cc1cccc2c(-c3nccc4ccc(CCCN5CCC6(CC5)CC6)cc34)cccc12)NC(=O)C1(C(F)(F)F)CCN(CC(F)F)CC1` [Compound 774], the IC50 was less than 10 nM. Consider `CN1CCc2nc(-c3cccc4c(C[C@H](NC(=O)C5(C(F)(F)F)CCN(CC(F)(F)F)CC5)C(=O)O)cccc34)ccc2C1` [Compound 755], for which the half-maximal inhibitory concentration (IC50) is less than 10 nM. On the same count and under the same terms, to `COc1cc(CN2CCC(C(F)(F)F)CC2)cnc1-c1cccc2c(C[C@H](NC(=O)C3(C(F)(F)F)CCN(CC(F)(F)F)CC3)C(=O)O)cccc12` [Compound 889] belongs less than 10 nM.

Staying with this test, now noted: RPMI-8866 cells with stable LOF mutation of the ITGB1 gene; read-out: Mean IC50 α4β7 KO^a.
`Cn1c(=O)c(-c2cccc3c(C[C@H](NC(=O)c4c(F)ccc(C5CC5)c4F)C(=O)O)cccc23)c(C(F)(F)F)c2ccccc21` [Compound 488]: the IC50 fell in the range of 100 to 1000 nM.

As to `O=C(N[C@@H](Cc1cccc2c(-c3ncc(CN4CCCCC4)c4ccccc34)cccc12)C(=O)O)c1c(F)cccc1F` [Compound 678], the IC50 lay in the range of 10 to 100 nM. Same read-out and setting: to `CO[C@H]1C[C@H](c2cc(F)c(C(=O)N[C@@H](Cc3cccc4c(-c5c(C(F)(F)F)c6ccccc6n(C)c5=O)cccc34)C(=O)O)c(F)c2)N(C)C1` [Compound 467] belongs 100 to 1000 nM; to `CCCS(=O)(=O)N1CCC(C(=O)N[C@@H](Cc2cccc3c(-c4c(OC)ccc(CN5CCC(F)(F)CC5)c4OC)cccc23)C(=O)O)(C(F)(F)F)CC1` [Compound 617], 100 to 1000 nM; to `O=C(N[C@@H](Cc1cccc2c(-c3cccc4ccncc34)cccc12)C(=O)O)c1c(F)cccc1F` [Compound 295], greater than 1000 nM.

Another test concerns the target α4β1 integrin (Homo sapiens (Human), UniProt P05556+P13612). Put plainly: Integrin Adhesion Assay: Protocol 5 (VCAM-coated plate, RPMI-8866 cells with stable LOF mutation of the ITGB7 gene). The note with it: Protocol 5; RPMI-8866 cells with LOF mutation of ITGB7, VCAM; read-out: Mean IC50 α4β1 KO. It counts as cell-based. The procedure:
as §1, §2, §3, §4, §5, §6
Integrin Adhesion Assay: Protocol 5
as §7, with “VCAM” for “MAdCAM”, “by” for “using a”, “(Tecan)” for “(Tecan),”, “LOF” for “loss of function (LOF)”, “ITGB7” for “ITGB1”, “and 5% CO2.” for “at a CO2 concentration of 5%.”
`COc1ccc(CN2CCC(C(F)(F)F)CC2)cc1-c1cccc2c(C[C@H](NC(=O)C3(C(F)(F)F)CCN(CC(F)F)CC3)C(=O)O)cccc12` [Compound 939]: the IC50 fell in the range of 100 to 1000 nM. Still for that read-out and setting: the value for `O=C(O)[C@H](Cc1cccc2c(-c3cccc4ncoc34)cccc12)NC(=O)C1(C(F)(F)F)CCN(CC(F)(F)F)CC1` [Compound 771] was greater than 1000 nM. Still for that read-out and setting: the value for `O=C(O)[C@H](Cc1cccc2c(-c3cccc4cnoc34)cccc12)NC(=O)C1(C(F)(F)F)CCN(CC(F)(F)F)CC1` [Compound 772] was greater than 1000 nM.

Turning to `CN(Cc1cnc(-c2cccc3c(C[C@H](NC(=O)C4(C(F)(F)F)CCN(CC(F)(F)F)CC4)C(=O)O)cccc23)c2ccccc12)CC(F)(F)F` [Compound 895], the IC50 was greater than 1000 nM. Still for that read-out and setting: to `Cc1cccc(F)c1C(=O)N[C@@H](Cc1cccc2c(-c3ccccc3OCCN3CCCCC3)cccc12)C(=O)O` [Compound 1007] belongs greater than 1000 nM. As for `O=C(O)[C@H](Cc1cccc2c(-c3cccc4ocnc34)cccc12)NC(=O)C1(C(F)(F)F)CCN(CC(F)(F)F)CC1` [Compound 770], the IC50 was greater than 1000 nM. On the same count and under the same terms, to `COc1c(-c2cccc3c(C[C@H](NC(=O)C4(C(F)(F)F)CCN(CC(F)(F)F)CC4)C(=O)O)cccc23)ccc2ccccc12` [Compound 776] belongs greater than 1000 nM; to `O=C(O)[C@H](Cc1cccc2c(-c3c(CN4CCCCC4)ccc4cccnc34)cccc12)NC(=O)C1(C(F)(F)F)CCN(CC(F)(F)F)CC1` [Compound 767], greater than 1000 nM. Same read-out and setting: the value for `CN(Cc1cnc(-c2cccc3c(C[C@H](NC(=O)C4(C(F)(F)F)CCN(CC(F)F)CC4)C(=O)O)cccc23)c2ccccc12)CC(F)(F)F` [Compound 923] was greater than 1000 nM; that for `CC[C@@H]1CCCCN1Cc1cnc(-c2cccc3c(C[C@H](NC(=O)C4(C(F)(F)F)CCN(CC(F)F)CC4)C(=O)O)cccc23)c2ccccc12` [Compound 932] was 100 to 1000 nM. The same measure, in the same setting: the value for `COc1c(-c2cccc3c(C[C@H](NC(=O)C4(C(F)(F)F)CCN(CC(F)(F)F)CC4)C(=O)O)cccc23)cc(CN2CCCCC2)cc1C(F)(F)F` [Compound 769] was greater than 1000 nM. As for `COc1ccc(CCN2CCCC(F)C2)c(OC)c1-c1cccc2c(C[C@H](NC(=O)C3(C(F)(F)F)CCN(CC(F)(F)F)CC3)C(=O)O)cccc12` (stereo partly shown) [Compound 826], the IC50 is 100 to 1000 nM.

Take `Cn1c(=O)c(-c2cccc3c(C[C@H](NC(=O)c4c(F)cccc4F)C(=O)O)cccc23)c(C(F)(F)F)c2cc(CCN3CC(F)C3)ccc21` [Compound 715]: the IC50 is greater than 1000 nM. Take `COc1cc2ccccc2cc1-c1cccc2c(C[C@H](NC(=O)C3(C(F)(F)F)CCN(CC(F)(F)F)CC3)C(=O)O)cccc12` [Compound 775]: the IC50 is greater than 1000 nM. Regarding `COc1cccc(CN2CCCCC2)c1-c1cccc2c(C[C@H](NC(=O)c3c(F)cccc3-c3ccccc3)C(=O)O)cccc12` [Compound 693], the concentration for half-maximal inhibition (IC50) was greater than 1000 nM. Still for that read-out and setting: to `Cc1cccc(F)c1C(=O)N[C@@H](Cc1cccc2c(-c3ncc(CN4CCC(F)(F)CC4)c4ccccc34)cccc12)C(=O)O` [Compound 1031] belongs greater than 1000 nM; to `Cc1cccc(F)c1C(=O)N[C@@H](Cc1cccc2c(-c3c(C(F)(F)F)c4cc(CN5CCC(F)(F)CC5)ccc4n(C)c3=O)cccc12)C(=O)O` [Compound 1032], greater than 1000 nM.

The same test, now with this note: RPMI-8866 cells with stable LOF mutation of the ITGB7 gene; read-out: Mean IC50 α4β1 KO^b.
Consider `Cn1c(=O)c(-c2cccc3c(C[C@H](NC(=O)C4(C(F)(F)F)CCN([C@H]5CCOC5)CC4)C(=O)O)cccc23)c(C(F)(F)F)c2ccccc21` [Compound 458], for which the IC50 lay within 100 to 1000 nM. Consider `CN(C)Cc1cccc2c(-c3cccc4c(C[C@H](NC(=O)c5c(F)cc(N6CCOC[C@@H]6C(F)(F)F)cc5CN5CCC(N(C)C)CC5)C(=O)O)cccc34)nccc12` [Compound 434], for which the IC50 was greater than 1000 nM.
